Experimental data taken from patent US20230295234A1, “ANTIMICROBIAL PEPTIDOMIMETICS” (SPEXIS AG, priority 2020, published 2023).
Like-named read-outs stand apart in the source and are kept apart here. Bridge positions count the residues as written; N and C are the ends. Square brackets hold non-standard residues; d marks the D form. Peptide text beside a SMILES is read from it. * marks the point of attachment. Val(Nα-amidino) = CC(C)[C@H](NC(=N)N)C(=O)*; Pro(4R-NH2) = N[C@H]1CN[C@H](C(=O)O)C1; Hyp = O=C(O)[C@@H]1C[C@@H](O)CN1; aThr = C[C@H](O)[C@H](N)C(=O)O; Pen = CC(C)(S)[C@H](N)C(=O)O; dDab = NCC[C@@H](N)C(=O)O; Nle = CCCC[C@H](N)C(=O)O; Dab = NCC[C@H](N)C(=O)O

Key:
[1] = test system: Escherichia coli MCR-1 Af 45
Outline: (§1)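 Two-fold serial dilutions of peptide, in water with polysorbate 80 (0.002% final), met bacteria adjusted to 0.5 McFarland then diluted to about 5×10^5 CFU/mL. Medium was cation-adjusted Mueller-Hinton II broth; peptide stocks were 1 mg/mL in sterile water.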

[2] = test system: Klebsiella pneumoniae SSI3010; settings: SSI3010
Outline: as §1

[3] = test system: Escherichia coli ATCC 25922; settings: ATCC 25922
Outline: as §1

[4] = test system: human red blood cells (hRBC); assay: Hemolysis of human red blood cells; type: cell-based; settings: red cells of human, 1 h
Outline: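 PBS-washed human red blood cells (20% v/v) were incubated with peptide at 200 μg/mL for 1 h at 37 °C with shaking. Supernatant OD was read at 540 nm after 8-fold dilution. Hemolysis is expressed as percent of the water control.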

[5] = Mueller-Hinton broth II, 18-20 hours at 35° C.

CC[C@H](C)[C@H](NC(=O)[C@@H](NC(=O)[C@@H]1CCCN1C(=O)[C@@H](NC(=O)[C@@H]1CCCN1C(=O)CN(CCCN)C(=O)[C@@H](N)CCCCN)C(C)C)[C@@H](C)CC)C(=O)N[C@@H](Cc1ccc(O)cc1)C(=O)N[C@H]1CSSC[C@@H](C(=O)N[C@@H](CCN)C(=O)N[C@@H](CCCNC(=N)N)C(=O)N[C@@H](Cc2ccc(O)cc2)C(=O)O)NC(=O)[C@H](CCCCN)NC(=O)[C@@H](CCN)NC(=O)[C@H]([C@@H](C)O)NC(=O)[C@H](CCN)NC(=O)[C@H](CCCNC(=N)N)NC(=O)[C@H](CC(N)=O)NC1=O [Example 101] (HELM PEPTIDE1{K.[NCCCN(CC(=O)[*:2])[*:1]].P.V.P.I.I.Y.C.N.R.[Dab].T.[NCC[C@@H](N[*:1])C(=O)[*:2]].K.C.[Dab].R.Y}$PEPTIDE1,PEPTIDE1,9:R3-16:R3$$$V2.0)
Escherichia coli MCR-1 Af 45 MIC ([1]; MCR-1 Af 45): 0.03125 µg/mL | Klebsiella pneumoniae SSI3010 MIC [2]: 0.0625 µg/mL | Escherichia coli ATCC 25922 MIC [3]: 0.0625 µg/mL | Hemolysis at 0.2 g/L [4]: 0%

CCCC[C@H](NC(=O)[C@H](CCCNC(=N)N)NC(=O)[C@H](CCN)NC(=O)[C@H]1NC(=O)[C@H](CCCCN)NC(=O)[C@@H](CCN)NC(=O)[C@H]([C@@H](C)O)NC(=O)[C@H](CCN)NC(=O)[C@H](CCCNC(=N)N)NC(=O)[C@H](CC(N)=O)NC(=O)[C@@H](NC(=O)[C@H](Cc2ccc(O)cc2)NC(=O)[C@@H](NC(=O)[C@@H](NC(=O)[C@@H]2CCCN2C(=O)[C@@H](NC(=O)[C@@H]2CCCN2C(=O)[C@H](CCCNC(=N)N)NC(=O)[C@@H](N)CCCCN)C(C)C)[C@@H](C)CC)[C@@H](C)CC)CSSC1(C)C)C(=O)O [Example 73] (HELM PEPTIDE1{K.R.P.V.P.I.I.Y.C.N.R.[Dab].T.[NCC[C@@H](N[*:1])C(=O)[*:2]].K.[Pen].[Dab].R.[Nle]}$PEPTIDE1,PEPTIDE1,9:R3-16:R3$$$V2.0)
Escherichia coli MCR-1 Af 45 MIC ([1]; MCR-1 Af 45): 0.0625 µg/mL | Klebsiella pneumoniae SSI3010 MIC [2]: 0.125 µg/mL | Escherichia coli ATCC 25922 MIC [3]: ≤0.125 µg/mL | Hemolysis at 0.2 g/L [4]: 0%

CC[C@H](C)[C@H](NC(=O)[C@@H]1C[C@@H](O)CN1C(=O)[C@@H](NC(=O)[C@@H]1C[C@@H](O)CN1C(=O)[C@H](CCCCN)NC(=N)N)C(C)C)C(=O)N[C@H](C(=O)N[C@@H](Cc1ccc(O)cc1)C(=O)N[C@@H]1C(=O)N[C@@H](CC(N)=O)C(=O)N[C@@H](CCCNC(=N)N)C(=O)N[C@@H](CCN)C(=O)N[C@@H]([C@@H](C)O)C(=O)N[C@H](CCN)C(=O)N[C@@H](CCCCN)C(=O)N[C@H](C(=O)N[C@@H](CCN)C(=O)N[C@@H](CCCNC(=N)N)C(=O)N[C@@H](Cc2ccc(O)cc2)C(=O)O)CSSC1(C)C)[C@@H](C)O [Example 63, Gua-Lys-Hyp-Val-Hyp-Ile-Thr-Tyr-Pen-Asn-Arg-Dab-Thr-^DDab-Lys-Cys-Dab-Arg-Tyr] (HELM PEPTIDE1{[N=C(N)N[C@@H](CCCCN)C(=O)[*:2]].[Hyp].V.[Hyp].I.T.Y.[Pen].N.R.[Dab].T.[NCC[C@@H](N[*:1])C(=O)[*:2]].K.C.[Dab].R.Y}$PEPTIDE1,PEPTIDE1,8:R3-15:R3$$$V2.0)
Escherichia coli MCR-1 Af 45 MIC ([1]; MCR-1 Af 45): 0.0625 µg/mL | Klebsiella pneumoniae SSI3010 MIC [2]: 0.125 µg/mL | Escherichia coli ATCC 25922 MIC [3]: 0.0625 µg/mL | Hemolysis at 0.2 g/L [4]: 0%

CCCC[C@H](NC(=O)[C@H](CCCNC(=N)N)NC(=O)[C@H](CCN)NC(=O)[C@@H]1CSSC(C)(C)[C@H](NC(=O)[C@H](Cc2ccc(O)cc2)NC(=O)[C@@H](NC(=O)[C@@H](NC(=O)[C@@H]2C[C@@H](N)CN2C(=O)[C@@H](NC(=O)[C@@H]2C[C@@H](N)CN2)C(C)C)[C@@H](C)CC)[C@@H](C)CC)C(=O)N[C@@H](CC(N)=O)C(=O)N[C@@H](CCCNC(=N)N)C(=O)N[C@@H](CCN)C(=O)N[C@@H]([C@@H](C)O)C(=O)N[C@H](CCN)C(=O)N[C@@H](CCCCN)C(=O)N1)C(=O)O [Example 8, Pro((4R)NH2)-Val-Pro((4R)NH2)-Ile-Ile-Tyr-Pen-Asn-Arg-Dab-Thr-^DDab-Lys-Cys-Dab-Arg-Nle] (H-[Pro(4R-NH2)]V[Pro(4R-NH2)]IIY[Pen]NR[Dab]T[dDab]KC[Dab]R[Nle]-OH; disulfide 7-14)
Escherichia coli MCR-1 Af 45 MIC ([1]; MCR-1 Af 45): 0.0625 µg/mL | Klebsiella pneumoniae SSI3010 MIC [2]: 0.125 µg/mL | Escherichia coli ATCC 25922 MIC [3]: 0.0625 µg/mL | Hemolysis at 0.2 g/L [4]: 0%

CC[C@H](C)[C@H](NC(=O)[C@@H](NC(=O)[C@@H]1CCCN1C(=O)[C@@H](NC(=O)[C@@H]1CCCN1C(=O)[C@H](CCCCN)NC(=O)[C@@H](N)CCCCN)C(C)C)[C@@H](C)CC)C(=O)N[C@@H](Cc1ccc(O)cc1)C(=O)N[C@H]1CSSC[C@@H](C(=O)N[C@@H](CCN)C(=O)N[C@@H](CCCNC(=N)N)C(=O)N[C@@H](Cc2ccc(O)cc2)C(=O)O)NC(=O)[C@H](CCCCN)NC(=O)[C@@H](CCN)NC(=O)[C@H]([C@@H](C)O)NC(=O)CN(CCN)C(=O)[C@H](CCCNC(=N)N)NC(=O)[C@H](CC(N)=O)NC1=O [Example 107] (HELM PEPTIDE1{K.K.P.V.P.I.I.Y.C.N.R.[NCCN(CC(=O)[*:2])[*:1]].T.[NCC[C@@H](N[*:1])C(=O)[*:2]].K.C.[Dab].R.Y}$PEPTIDE1,PEPTIDE1,9:R3-16:R3$$$V2.0; N-terminus assumed)
Escherichia coli MCR-1 Af 45 MIC ([1]; MCR-1 Af 45): 0.25 µg/mL | Klebsiella pneumoniae SSI3010 MIC [2]: 0.25 µg/mL | Escherichia coli ATCC 25922 MIC [3]: 0.25 µg/mL | Hemolysis at 0.2 g/L [4]: 0%

CC[C@H](C)[C@H](NC(=O)[C@@H]1C[C@@H](O)CN1C(=O)[C@@H](NC(=N)N)C(C)C)C(=O)N[C@H](C(=O)N[C@@H](Cc1ccc(O)cc1)C(=O)N[C@@H]1C(=O)N[C@@H](CC(N)=O)C(=O)N[C@@H](CCCNC(=N)N)C(=O)N[C@@H](CCN)C(=O)N[C@@H]([C@@H](C)O)C(=O)N[C@H](CCN)C(=O)N[C@@H](CCCCN)C(=O)N[C@H](C(=O)N[C@@H](Cc2ccc(O)cc2)C(=O)N[C@@H](CCCNC(=N)N)C(=O)N[C@@H](Cc2ccc(O)cc2)C(=O)O)CSSC1(C)C)[C@H](C)O [Example 201] ({Val(Nα-amidino)}-[Hyp]I[aThr]Y[Pen]NR[Dab]T[dDab]KCYRY-OH; disulfide 5-12)
Escherichia coli MCR-1 Af 45 MIC [1, 5]: 0.25 µg/mL | Klebsiella pneumoniae SSI3010 MIC [2]: 0.5 µg/mL | Escherichia coli ATCC 25922 MIC [3]: 0.5 µg/mL | Hemolysis at 0.2 g/L [4]: 0%

CC[C@H](C)[C@H](NC(=O)[C@@H]1CCCN1C(=O)[C@@H](N)C(C)C)C(=O)N[C@H](C(=O)N[C@@H](Cc1ccc(O)cc1)C(=O)N[C@H]1CSSC[C@@H](C(=O)N[C@@H](CCN)C(=O)N[C@@H](CCCNC(=N)N)C(=O)N[C@@H](Cc2ccc(O)cc2)C(=O)O)NC(=O)[C@H](CCCCN)NC(=O)[C@@H](CCN)NC(=O)[C@H]([C@@H](C)O)NC(=O)[C@H](CCN)NC(=O)[C@H](CCCNC(=N)N)NC(=O)[C@H](CC(N)=O)NC1=O)[C@@H](C)O [Example 144] (HELM PEPTIDE1{V.P.I.T.Y.C.N.R.[Dab].T.[NCC[C@@H](N[*:1])C(=O)[*:2]].K.C.[Dab].R.Y}$PEPTIDE1,PEPTIDE1,6:R3-13:R3$$$V2.0)
Escherichia coli MCR-1 Af 45 MIC [1, 5]: 0.25 µg/mL | Klebsiella pneumoniae SSI3010 MIC [2]: 0.125 µg/mL | Escherichia coli ATCC 25922 MIC [3]: 0.0625 µg/mL | Hemolysis at 0.2 g/L [4]: 0%

CCCC[C@H](NC(=O)[C@H](CCCNC(=N)N)NC(=O)[C@H](CCC(N)=O)NC(=O)[C@@H]1CSSC(C)(C)[C@H](NC(=O)[C@H](Cc2ccc(O)cc2)NC(=O)[C@@H](NC(=O)[C@@H](NC(=O)[C@@H]2C[C@@H](N)CN2C(=O)[C@@H](NC(=O)[C@@H]2CCCN2)C(C)C)[C@@H](C)CC)[C@@H](C)CC)C(=O)N[C@@H](CC(N)=O)C(=O)N[C@@H](CCCNC(=N)N)C(=O)N[C@@H](CCN)C(=O)N[C@@H]([C@@H](C)O)C(=O)N[C@H](CCN)C(=O)N[C@@H](CCCCN)C(=O)N1)C(=O)O [Example 3, Pro-Val-Pro((4R)NH2)-Ile-Ile-Tyr-Pen-Asn-Arg-Dab-Thr-^DDab-Lys-Cys-Gln-Arg-Nle] (HELM PEPTIDE1{P.V.[N[C@@H]1C[C@@H](C(=O)[*:2])N([*:1])C1].I.I.Y.[Pen].N.R.[Dab].T.[NCC[C@@H](N[*:1])C(=O)[*:2]].K.C.Q.R.[Nle]}$PEPTIDE1,PEPTIDE1,7:R3-14:R3$$$V2.0)
Escherichia coli MCR-1 Af 45 MIC ([1]; MCR-1 Af 45): 0.25 µg/mL | Klebsiella pneumoniae SSI3010 MIC [2]: 0.25 µg/mL | Escherichia coli ATCC 25922 MIC [3]: 0.125 µg/mL | Hemolysis at 0.2 g/L [4]: 0%

CC[C@H](C)[C@H](NC(=O)[C@@H]1C[C@@H](O)CN1C(=O)[C@@H](N)C(C)C)C(=O)N[C@H](C(=O)N[C@@H](Cc1ccc(O)cc1)C(=O)N[C@@H]1C(=O)N[C@@H](CC(N)=O)C(=O)N[C@@H](CCCNC(=N)N)C(=O)N[C@@H](CCN)C(=O)N[C@@H]([C@@H](C)O)C(=O)N[C@H](CCN)C(=O)N[C@@H](CC(N)=O)C(=O)N[C@H](C(=O)N[C@@H](CCN)C(=O)N[C@@H](CCCNC(=N)N)C(=O)N[C@@H](Cc2ccc(O)cc2)C(=O)O)CSSC1(C)C)[C@@H](C)O [Example 173] (HELM PEPTIDE1{V.[Hyp].I.T.Y.[Pen].N.R.[Dab].T.[NCC[C@@H](N[*:1])C(=O)[*:2]].N.C.[Dab].R.Y}$PEPTIDE1,PEPTIDE1,6:R3-13:R3$$$V2.0; N-terminus and C-terminus assumed)
Escherichia coli MCR-1 Af 45 MIC ([1]; MCR-1 Af 45): 0.25 µg/mL | Klebsiella pneumoniae SSI3010 MIC [2]: 0.5 µg/mL | Escherichia coli ATCC 25922 MIC [3]: 0.25 µg/mL | Hemolysis at 0.2 g/L [4]: 0%
